Experimental findings from patent EP1147095B1, “2, 3, 4, 5-TETRAHYDRO-1H-[1, 4] BENZODIAZEPINE-3-HYDROXAMIC ACIDS AS MATRIX METALLOPROTEINASE INHIBITORS” (Wyeth Holdings Corporation, priority 1999, dated 2000) are described below.

Assay type in all cases: biochemical
Assay [1] addresses T1, MMP-1 (Homo sapiens, UniProt P03956).
T1 construct: human recombinant fibroblast collagenase (truncated, mw=18,828)
T1 sequence (P03956 100-269 limits assumed): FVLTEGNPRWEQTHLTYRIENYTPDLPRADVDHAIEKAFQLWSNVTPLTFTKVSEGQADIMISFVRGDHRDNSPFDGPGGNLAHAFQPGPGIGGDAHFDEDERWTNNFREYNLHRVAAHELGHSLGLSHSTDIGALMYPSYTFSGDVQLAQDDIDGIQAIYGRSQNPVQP
The experiment in a line: In Vitro Collagenase Assay. Conditions: human recombinant fibroblast collagenase, fluorogenic peptide substrate. An excerpt:
In Vitro Collagenase Assay
This assay was based on the cleavage of a peptide substrate ((Dnp-Pro-Cha-Gly-Cys(Me)-His-Ala-Lys(NMa)-NH2), available from Peptide International, Inc.) by collagenase releasing the fluorescent NMa group which was quantitated on the fluorometer as disclosed in Bickett et al., "A High Throughput Fluorogenic Substrate for Interstitial Collagenase (MMP-1) and Gelatinase (MMP-9)", Anal. Biochem., 212:58-64, (1993). Dnp quenches the NMa fluorescence in the intact substrate.
The assay was run in HCBC assay buffer (50 mM HEPES, pH 7.0, 5 mM Ca^+2, 0.02% Brij, 0.5% Cysteine), with human recombinant fibroblast collagenase (truncated, mw=18,828, from Wyeth-Ayerst Research, Radnor, PA). The substrate was dissolved in methanol and stored frozen in 1 mM aliquots. Collagenase was stored frozen in buffer in 25 µM aliquots. In conducting the assay, the substrate was dissolved in HCBC buffer to a final concentration of 10 µM and collagenase to a final concentration of 5 nM. The compounds being examined were dissolved in methanol, DMSO, or HCBC. The methanol and DMSO were diluted in HCBC to < 1.0%. The compounds were added to a 96 well plate containing enzyme and the reaction was started by the addition of substrate.
The reaction was read (excitation 340 nm, emission 444 nm) for 10 min. and the increase in fluorescence over time was plotted as a linear line. The slope of the line was calculated representing the reaction rate. The linearity of the reaction rate was confirmed (r^2 >0.85). The mean (x ± sem) of the control rate was calculated and compared for statistical significance (p <0.05) with drug-treated rates using Dunnett's multiple comparison test. Dose-response relationships were generated using multiple doses of drug and IC50 values with 95% CI were estimated using linear regression.

Assay [2] concerns the target T2, MMP-9 (Homo sapiens, UniProt P14780).
T2 construct: from tissue; host or cells: human neutrophils
Nature of the assay: In Vitro Gelatinase Assay. Conditions: human neutrophil gelatinase B, thiopeptide substrate. As to the method: In Vitro Gelatinase Assay
The assay is based on the cleavage of the thiopeptide substrate ((Ac-Pro-Leu-Gly(2-mercapto-4-methyl-pentanoyl)-Leu-Gly-OEt), available from Bachem Bioscience) by the enzyme gelatinase, releasing the substrate product which reacts colorimetrically with DTNB ((5,5'-dithio-bis(2-nitro-benzoic acid)). This assay is disclosed in Weingarten et al., "Spectrophotometric Assay for Vertebrate Collegenase", Anal. Biochem., 147:437-440, (1985). The enzyme activity is measured by the rate of the color increase.
The thiopeptide substrate was made up fresh as a 20 mM stock in 100% DMSO and the DTNB was dissolved in 100% DMSO as a 100 mM stock and stored in the dark at room temperature. The substrate and the DTNB were diluted together to 1 mM with substrate buffer (50 mM HEPES, pH 7.5, 5 mM CaCl2) before use. The stock of human neutrophil gelatinase B was diluted with assay buffer (50 mM HEPES, pH 7.5, 5 mM CaCl2, 0.02% Brij) to a final concentration of 0.15 nM.
The assay buffer, enzyme, DTNB/substrate (500 µM final concentration) and vehicle or inhibitor were added to a 96 well plate (total reaction volume of 200µl) and the increase in color was monitored spectrophotometrically for 5 minutes at 405 nm on a plate reader.
The increase in OD405 was plotted and the slope of the line was calculated. The slope represents the reaction rate. The linearity of the reaction rate was confirmed (r^2 >0.85) and the mean (x ± sem) of the control rate was calculated and compared for statistical significance (p <0.05) with drug-treated rates using Dunnett's multiple comparison test. Dose-response relationships were generated using multiple doses of drug and IC50 values with 95% CI were estimated using linear regression (IPRED, HTB).

Assay [3] deals with MMP-13 (Homo sapiens, UniProt P45452). Nature of the assay: MMP-13 inhibition (Table 1, no method described).
Assay [4] addresses T3, TACE (Homo sapiens, UniProt P78536).
T3 construct: purchased Immunex
Nature of the assay: Procedure for Measuring TACE Inhibition. Conditions: TACE (Immunex), fluorescent peptidyl substrate. As to the method:
The plates were incubated for 10 minutes at room temperature. The reaction was initiated by addition of a fluorescent peptidyl substrate (final concentration 100 µM) to each well with shaking on a shaker for 5 sec. The reaction was read (excitation 340 nm, emission 420 nm) for 10 min. and the increase in fluorescence over time was plotted as a linear line. The slope of the line was calculated and this represents the reaction rate. […] The mean (x±sem) of the control rate was calculated and compared for statistical significance (p<0.05) with drug-treated rates using Dunnett's multiple comparison test.

T3 sequence (P78536 215-824): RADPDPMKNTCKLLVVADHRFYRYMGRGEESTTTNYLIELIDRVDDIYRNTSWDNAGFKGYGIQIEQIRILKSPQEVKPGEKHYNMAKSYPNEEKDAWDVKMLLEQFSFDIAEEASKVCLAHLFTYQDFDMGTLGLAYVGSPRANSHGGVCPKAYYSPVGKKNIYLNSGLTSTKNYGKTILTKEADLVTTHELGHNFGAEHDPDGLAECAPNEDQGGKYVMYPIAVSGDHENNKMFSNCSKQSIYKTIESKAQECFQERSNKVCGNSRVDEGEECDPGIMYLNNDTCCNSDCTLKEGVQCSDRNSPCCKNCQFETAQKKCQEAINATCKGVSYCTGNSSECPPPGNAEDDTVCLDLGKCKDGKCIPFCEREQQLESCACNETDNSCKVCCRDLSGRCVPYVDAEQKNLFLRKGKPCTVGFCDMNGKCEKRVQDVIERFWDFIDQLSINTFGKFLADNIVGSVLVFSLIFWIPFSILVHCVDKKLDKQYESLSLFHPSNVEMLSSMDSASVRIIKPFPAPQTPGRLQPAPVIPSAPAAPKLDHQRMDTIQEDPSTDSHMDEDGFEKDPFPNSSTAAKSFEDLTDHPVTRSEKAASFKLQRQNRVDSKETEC
T2 sequence (P14780 94-707): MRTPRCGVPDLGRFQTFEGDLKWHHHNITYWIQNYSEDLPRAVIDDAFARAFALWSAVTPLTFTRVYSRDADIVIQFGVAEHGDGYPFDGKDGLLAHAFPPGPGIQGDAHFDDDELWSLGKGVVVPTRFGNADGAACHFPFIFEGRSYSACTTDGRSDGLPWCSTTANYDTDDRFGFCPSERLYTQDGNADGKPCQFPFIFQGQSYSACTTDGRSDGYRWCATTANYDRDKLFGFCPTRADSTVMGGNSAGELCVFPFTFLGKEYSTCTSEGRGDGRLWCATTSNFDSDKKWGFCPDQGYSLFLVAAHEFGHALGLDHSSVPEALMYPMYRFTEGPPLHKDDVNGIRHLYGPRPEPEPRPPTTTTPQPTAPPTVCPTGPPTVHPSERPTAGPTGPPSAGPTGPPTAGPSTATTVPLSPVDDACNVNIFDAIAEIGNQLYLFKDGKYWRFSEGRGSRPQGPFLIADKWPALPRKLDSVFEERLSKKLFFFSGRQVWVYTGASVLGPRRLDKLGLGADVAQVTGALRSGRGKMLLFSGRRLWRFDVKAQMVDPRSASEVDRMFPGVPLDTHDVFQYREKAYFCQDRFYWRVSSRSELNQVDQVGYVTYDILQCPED

With “4-(4-But-2-ynyloxybenzene-sulfonyl)-1-methoxyacetyl-2,3,4,5-tetrahydro-1H-[1,4]benzodiazepine-3-carboxylic acid, hydroxyamide [Example 57]”, the IC50 – broadly, the point on the concentration scale where inhibition reaches its midpoint – in assay [1] was found to be 125 nM; in assay [2], 2 nM; in assay [3], 7 nM; in assay [4], 33 nM.
Take “4-(4-[4-Methoxybut-2-ynyloxy]benzenesulfonyl)-1-(3-pyridinylcarbonyl)-2,3,4,5-tetrahydro-1H-[1,4]benzodiazepine-3-carboxylic acid, hydroxyamide [Example 58]”: the 50% inhibitory concentration (IC50) in assay [1] was found to be 841 nM; in assay [2], 33 nM; in assay [3], 29 nM; in assay [4], 10 nM.
The matching figures for `CC#CCOc1ccc(S(=O)(=O)N2Cc3ccccc3N(C(C)=O)CC2C(=O)NO)cc1` (centres unmarked) [Example 1, 1-Acetyl-4-(4-but-2-ynyloxbenzenesulfonyl)-2,3,4,5-tetrahydro-1H-[1,4]benzodiazepine-3-carboxylic acid, hydroxyamide]: 835 nM, 228 nM, 77 nM and 16 nM.
`CC#CCOc1ccc(S(=O)(=O)N2Cc3ccccc3N(C(=O)c3ccccc3)CC2C(=O)NO)cc1` (centres unmarked) [Example 3, 1-Benzoyl-4-(4-but-2-ynyloxybenzenesulfonyl)-2,3,4,5-tetrahydro-1H-[1,4]-benzodiazepine-3-carboxylic acid, hydroxyamide]: the IC50 in assay [1] was found to be 165 nM; in assay [2], 36 nM.
